Assay results from ChEMBL document CHEMBL4325847, “Dihydropyrazothiazole derivatives as potential MMP-2/MMP-8 inhibitors for cancer therapy” (Bioorg Med Chem Lett, 2018).

Key:
[1] = test system: MCF7; experiment: Antiproliferative activity against human MCF7 cells after 48 hrs by MTT assay; type: functional, cell-based; details: MCF7, 48 h
[2] = test system: HepG2; experiment: Antiproliferative activity against human HepG2 cells after 48 hrs by MTT assay; type: functional, cell-based; details: HepG2, 48 h
[3] = test system: HeLa; experiment: Antiproliferative activity against human HeLa cells after 48 hrs by MTT assay; type: functional, cell-based
[4] = biological target: 72 kDa type IV collagenase (Homo sapiens, UniProt P08253); experiment: Inhibition of recombinant human MMP-2 preincubated for 10 mins followed by Mca-PLGL-Dpa-AR-NH2 substrate addition and measured for 5 mins by fluorescence assay
72 kDa type IV collagenase, sequence (P08253 whole entry): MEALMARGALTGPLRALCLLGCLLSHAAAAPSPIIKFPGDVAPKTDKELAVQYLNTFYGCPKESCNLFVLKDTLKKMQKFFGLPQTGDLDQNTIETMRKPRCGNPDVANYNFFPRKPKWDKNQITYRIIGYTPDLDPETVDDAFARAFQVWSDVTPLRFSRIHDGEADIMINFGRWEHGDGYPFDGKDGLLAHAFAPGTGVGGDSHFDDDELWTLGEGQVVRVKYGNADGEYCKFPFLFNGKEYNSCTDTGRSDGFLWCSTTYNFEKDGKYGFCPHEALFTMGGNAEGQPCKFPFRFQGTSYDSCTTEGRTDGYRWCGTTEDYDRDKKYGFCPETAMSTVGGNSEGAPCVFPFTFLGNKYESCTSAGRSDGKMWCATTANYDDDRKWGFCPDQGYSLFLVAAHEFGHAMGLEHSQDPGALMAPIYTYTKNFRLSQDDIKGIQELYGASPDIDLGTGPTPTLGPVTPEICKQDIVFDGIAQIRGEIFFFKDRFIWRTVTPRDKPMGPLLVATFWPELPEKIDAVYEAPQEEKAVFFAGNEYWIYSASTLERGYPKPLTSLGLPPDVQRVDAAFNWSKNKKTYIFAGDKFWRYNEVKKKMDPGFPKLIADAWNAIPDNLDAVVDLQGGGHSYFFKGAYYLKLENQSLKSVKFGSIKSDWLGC

[5] = biological target: Neutrophil collagenase (Homo sapiens, UniProt P22894); experiment: Inhibition of recombinant human MMP-8 using Mca-PLGL-Dpa-AR-NH2 as substrate preincubated for 10 mins followed by substrate addition and measured for 5 mins by fluorescence assay
Neutrophil collagenase, sequence (P22894 whole entry): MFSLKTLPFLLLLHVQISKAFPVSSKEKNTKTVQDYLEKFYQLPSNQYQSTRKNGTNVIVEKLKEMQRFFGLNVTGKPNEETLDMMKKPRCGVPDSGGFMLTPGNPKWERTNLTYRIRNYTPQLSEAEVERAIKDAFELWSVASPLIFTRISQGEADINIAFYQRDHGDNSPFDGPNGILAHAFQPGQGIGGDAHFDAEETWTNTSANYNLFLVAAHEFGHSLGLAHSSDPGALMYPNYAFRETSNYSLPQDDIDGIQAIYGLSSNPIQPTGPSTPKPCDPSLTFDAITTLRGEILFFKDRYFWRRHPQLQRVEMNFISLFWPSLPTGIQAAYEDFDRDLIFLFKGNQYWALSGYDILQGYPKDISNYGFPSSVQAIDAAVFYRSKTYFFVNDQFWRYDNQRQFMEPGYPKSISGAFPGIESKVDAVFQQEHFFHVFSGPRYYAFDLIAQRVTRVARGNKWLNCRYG

[6] = test system: HEK-293T; experiment: Cytotoxicity against human 293T cells by MTT assay; type: cell-based
[7] = test system: L02; experiment: Cytotoxicity against human LO2 cells by MTT assay; type: cell-based
[8] = test system: MCF7; experiment: Induction of apoptosis in human MCF7 cells assessed as live cells at 2 uM after 48 hrs by Annexin V-FITC/propidium iodide staining-based flow cytometric analysis (reference value: 91.8%); type: functional
[9] = test system: MCF7; experiment: Induction of apoptosis in human MCF7 cells assessed as early apoptotic cells at 2 uM after 48 hrs by Annexin V-FITC/propidium iodide staining-based flow cytometric analysis (reference value: 2.54%); type: functional
[10] = test system: MCF7; experiment: Induction of apoptosis in human MCF7 cells assessed as late apoptotic cells at 2 uM after 48 hrs by Annexin V-FITC/propidium iodide staining-based flow cytometric analysis (reference value: 5.33%); type: functional
[11] = test system: MCF7; experiment: Induction of apoptosis in human MCF7 cells assessed as necrotic cells at 2 uM after 48 hrs by Annexin V-FITC/propidium iodide staining-based flow cytometric analysis (reference value: 0.343%); type: functional
[12] = test system: MCF7; experiment: Induction of apoptosis in human MCF7 cells assessed as live cells at 8 uM after 48 hrs by Annexin V-FITC/propidium iodide staining-based flow cytometric analysis (reference value: 91.8%); type: functional
[13] = test system: MCF7; experiment: Induction of apoptosis in human MCF7 cells assessed as early apoptotic cells at 8 uM after 48 hrs by Annexin V-FITC/propidium iodide staining-based flow cytometric analysis (reference value: 2.54%); type: functional
[14] = test system: MCF7; experiment: Induction of apoptosis in human MCF7 cells assessed as late apoptotic cells at 8 uM after 48 hrs by Annexin V-FITC/propidium iodide staining-based flow cytometric analysis (reference value: 5.33%); type: functional
[15] = test system: MCF7; experiment: Induction of apoptosis in human MCF7 cells assessed as necrotic cells at 8 uM after 48 hrs by Annexin V-FITC/propidium iodide staining-based flow cytometric analysis (reference value: 0.343%); type: functional
[16] = test system: MCF7; experiment: Induction of apoptosis in human MCF7 cells assessed as live cells at 32 uM after 48 hrs by Annexin V-FITC/propidium iodide staining-based flow cytometric analysis (reference value: 91.8%); type: functional
[17] = test system: MCF7; experiment: Induction of apoptosis in human MCF7 cells assessed as early apoptotic cells at 32 uM after 48 hrs by Annexin V-FITC/propidium iodide staining-based flow cytometric analysis (reference value: 2.54%); type: functional
[18] = test system: MCF7; experiment: Induction of apoptosis in human MCF7 cells assessed as late apoptotic cells at 32 uM after 48 hrs by Annexin V-FITC/propidium iodide staining-based flow cytometric analysis (reference value: 5.33%); type: functional
[19] = test system: MCF7; experiment: Induction of apoptosis in human MCF7 cells assessed as necrotic cells at 32 uM after 48 hrs by Annexin V-FITC/propidium iodide staining-based flow cytometric analysis (reference value: 0.343%); type: functional
[20] = test system: MCF7; experiment: Induction of apoptosis in human MCF7 cells after 48 hrs by Annexin V-FITC/propidium iodide staining-based flow cytometric analysis; type: functional, cell-based

Row | Compound | IC50 [1] [µM] | IC50 [2] [µM] | IC50 [3] [µM] | IC50 ([4]; read-out: IC50) [µM] | IC50 [5] [µM] | CC50 [6] [µM] | CC50 [7] [µM] | other results
1 | COc1ccc(C2=NN(c3nc(-c4cccc(OC)c4)cs3)C(c3ccccc3O)C2)cc1 (configuration not stated) | 3.72 | 12.6 | 13.7 | 2.8 | 25.6 | 35.2 | 56.2 | –
2 | COc1ccc(-c2csc(N3N=C(c4ccc(F)cc4)CC3c3ccccc3O)n2)cc1 (configuration not stated) | 4.56 | 18.2 | 17 | 10.8 | 28.2 | 59.4 | 85.6 | –
3 | Cc1ccc(-c2cc(C(F)(F)F)nn2-c2ccc(S(N)(=O)=O)cc2)cc1 [CELECOXIB] | 6.96 | 0.78 | – | – | – | 55.8 | 78.2 | –
4 | COc1cccc(-c2csc(N3N=C(c4ccc(F)cc4)CC3c3ccccc3O)n2)c1 (configuration not stated) | 4.01 | 17.8 | 9.73 | 6.7 | 36.4 | 39.1 | 43.8 | –
5 | Oc1ccccc1C1CC(c2ccc(F)cc2)=NN1c1nc(-c2ccccc2)cs1 (configuration not stated) | 3.24 | 25 | 13.1 | 9.65 | 39.7 | 50.7 | 85.6 | –
6 | COc1ccc(C2=NN(c3nc(-c4ccc(OC)cc4)cs3)C(c3ccccc3O)C2)cc1 (configuration not stated) | 3.17 | 15.3 | 16.3 | 11.7 | 65.2 | 63 | 49.7 | –
7 | COc1ccc(C2=NN(c3nc(-c4cccc(Br)c4)cs3)C(c3ccccc3O)C2)cc1 (configuration not stated) | 4.42 | 7.55 | 13 | 14 | 48.1 | 24.5 | 68.7 | –
8 | COc1ccc(C2=NN(c3nc(-c4ccc(Br)cc4)cs3)C(c3ccccc3O)C2)cc1 (configuration not stated) | 20.1 | 9.52 | 28.1 | 16.9 | 36.8 | 71.9 | > 100 | –
9 | C[C@@]1(O)c2cccc(O)c2C(=O)C2=C(O)[C@]3(O)C(=O)C(C(N)=O)=C(O)C[C@@H]3C[C@@H]21 | – | – | – | 1.29 | 21.9 | – | – | –
10 | Oc1ccccc1C1CC(c2ccc(F)cc2)=NN1c1nc(-c2cccc(Br)c2)cs1 (configuration not stated) | 8.01 | 18.4 | 10.8 | 16.2 | 60.1 | 70.1 | 59.4 | –
11 | COc1cccc(-c2csc(N3N=C(c4ccccc4)CC3c3ccccc3O)n2)c1 (configuration not stated) | 5.3 | 10.9 | 2.73 | 8.31 | 35.8 | 46.6 | 57.9 | –
12 | Oc1ccccc1C1CC(c2ccccc2)=NN1c1nc(-c2ccc(C(F)(F)F)cc2)cs1 (configuration not stated) | 3.5 | 8.85 | 2.25 | 48.2 | > 100 | 25.4 | 42.8 | –
13 | COc1ccc(C2=NN(c3nc(-c4ccc(C(F)(F)F)cc4)cs3)C(c3ccccc3O)C2)cc1 (configuration not stated) | 11.1 | 12 | 29.3 | 58.8 | > 100 | 45.4 | 45.6 | IC50 ([4]; read-out: pIC50 (converted)): 57.5 µM

Now from value to compound, other results behind:

Row | IC50 [1] [µM] | IC50 [2] [µM] | IC50 [3] [µM] | IC50 ([4]; read-out: IC50) [µM] | IC50 [5] [µM] | Compound | CC50 [6] [µM] | CC50 [7] [µM] | other results
14 | 2.89 | 10.5 | 11.7 | 58.4 | 100 | Oc1ccccc1C1CC(c2ccc(F)cc2)=NN1c1nc(-c2ccc(C(F)(F)F)cc2)cs1 (configuration not stated) | 34.8 | 66.1 | –
15 | 2.39 | 23.3 | 18.2 | 12.9 | 30.5 | COc1ccc(C2=NN(c3nc(-c4ccccc4)cs3)C(c3ccccc3O)C2)cc1 (configuration not stated) | 64.1 | 75.2 | –
16 | 1.03 | 11.9 | 8.64 | 11.2 | 48.9 | COc1ccc(-c2csc(N3N=C(c4ccccc4)CC3c3ccccc3O)n2)cc1 (configuration not stated) | 57.1 | 72.4 | Activity [8]: 73%; Activity [9]: 4.44%; Activity [10]: 22.4%; Activity [11]: 0.216%; Activity [12]: 53.7%; Activity [13]: 2.57%; Activity [14]: 43.6%; Activity [15]: 0.207%; Activity [16]: 36.6%; Activity [17]: 2.29%; Activity [18]: 60.9%; Activity [19]: 0.198%; Activity [20]: Dose-dependent effect
17 | 2.08 | 9.9 | 5.05 | 21.6 | 62.5 | Oc1ccccc1C1CC(c2ccccc2)=NN1c1nc(-c2ccccc2)cs1 (configuration not stated) | 55.1 | 88.3 | IC50 ([4]; read-out: pIC50 (converted)): 21.4 µM
18 | 2.14 | 17.6 | 4.88 | 34.8 | 75.6 | Oc1ccccc1C1CC(c2ccccc2)=NN1c1nc(-c2ccc(Br)cc2)cs1 (configuration not stated) | 52.8 | 65.2 | –
19 | 1.07 | 21.7 | 5.51 | 28.3 | 86.5 | Oc1ccccc1C1CC(c2ccccc2)=NN1c1nc(-c2cccc(Br)c2)cs1 (configuration not stated) | 41.8 | 42.3 | –
20 | 1.47 | 15 | 2.7 | 12.3 | 48.8 | Oc1ccccc1C1CC(c2ccc(F)cc2)=NN1c1nc(-c2ccc(Br)cc2)cs1 (configuration not stated) | 52 | 48.2 | –
